# Test system: Staphylococcus aureus
# Assay: Antibacterial activity against methicillin-sensitive Staphylococcus aureus ATCC 29213 after 16 to 20 hrs by broth microdilution method
# Format: functional
row,Structure (SMILES),MIC [µg/mL]
1,O=[N+]([O-])c1cc(-c2nc(-c3ccc(Oc4ccc(F)cc4)cc3)no2)ccc1O,≥ 128
2,Nc1c(F)cc(-c2nc(-c3ccc(Oc4ccc(C(F)(F)F)cc4)cc3)no2)cc1F,4
3,O=[N+]([O-])c1ccc(-c2nc(-c3ccc(Oc4ccccc4)cc3)no2)cc1,≥ 32
4,COc1ccc(-c2nc(-c3ccc(Oc4ccc(F)cc4)cc3)no2)cc1[N+](=O)[O-],≥ 128
5,Oc1ccc(-c2nc(-c3ccc(Oc4ccc(C(F)(F)F)cc4)cc3)no2)cn1,≥ 128
6,Fc1ccc(Oc2ccc(-c3noc(-c4n[nH]cc4I)n3)cc2)cc1,4
7,Nc1cc(-c2nc(-c3ccc(Oc4ccc(C(F)(F)F)cc4)cc3)no2)cnc1O,≥ 128
8,c1ccc(Oc2ccc(-c3noc(C4CCOCC4)n3)cc2)cc1,≥ 128
9,Nc1c(F)cc(-c2nc(-c3ccc(Oc4ccccc4)cc3)no2)cc1F,8
10,FC(F)(F)c1ccc(Oc2ccc(-c3noc(-c4n[nH]cc4Br)n3)cc2)cc1,1
11,Oc1ccc(-c2nc(-c3ccc(Oc4ccccc4)cc3)no2)cc1,1
12,CCn1ccc(-c2nc(-c3ccc(Oc4ccc(F)cc4)cc3)no2)n1,≥ 128
13,O=C(Nc1c[nH]nc1-c1nc(-c2ccc(Oc3ccc(C(F)(F)F)cc3)cc2)no1)c1ccccn1,≥ 128
14,Brc1c[nH]nc1-c1nc(-c2ccc(Oc3ccccc3)cc2)no1,1
15,Oc1cc(-c2nc(-c3ccc(Oc4ccccc4)cc3)no2)ccc1I,≥ 128
16,O=[N+]([O-])c1cc(-c2nc(-c3ccc(Oc4ccc(C(F)(F)F)cc4)cc3)no2)cnc1O,8
17,Cl.Nc1ccc(-c2nc(-c3ccc(Oc4ccc(C(F)(F)F)cc4)cc3)no2)cc1,1
18,Ic1c[nH]nc1-c1nc(-c2ccc(Oc3ccccc3)cc2)no1,1
19,Oc1ccc(-c2nc(-c3ccc(Oc4ccc(F)cc4)cc3)no2)cc1O,4
20,[O-][n+]1ccc(-c2nc(-c3ccc(Oc4ccccc4)cc3)no2)cc1,≥ 128
21,COC(=O)c1ccc(-c2nc(-c3ccc(Oc4ccc(F)cc4)cc3)no2)cc1,≥ 128
22,COc1ccc(-c2nc(-c3ccc(Oc4ccc(F)cc4)cc3)no2)cc1OC,≥ 128
23,Fc1ccc(-c2nc(-c3ccc(Oc4ccc(C(F)(F)F)cc4)cc3)no2)cc1,≥ 128
24,Oc1cccc(-c2nc(-c3ccc(Oc4ccccc4)cc3)no2)c1,≥ 128
25,FC(F)(F)c1ccc(Oc2ccc(-c3noc(-c4n[nH]c5ccccc45)n3)cc2)cc1,≥ 128

# Other lines, results leading:
row,MIC [µg/mL],Structure (SMILES)
1,2,Oc1ccc(-c2nc(-c3ccc(Oc4ccc(F)cc4)cc3)no2)cc1F
2,≥ 128,FC(F)(F)c1ccc(Oc2ccc(-c3noc(-c4ccc(Br)cc4)n3)cc2)cc1
3,≥ 128,NC(=O)c1ccc(-c2nc(-c3ccc(Oc4ccc(F)cc4)cc3)no2)cc1
4,4,Oc1ccc(-c2nc(-c3ccc(Oc4ccccc4)cc3)no2)cc1F
5,1,Clc1c[nH]nc1-c1nc(-c2ccc(Oc3ccccc3)cc2)no1
6,4,Nc1ccc(-c2nc(-c3ccc(Oc4ccccc4)cc3)no2)cc1
7,≥ 128,O=C(Nc1c[nH]nc1-c1nc(-c2ccc(Oc3ccc(C(F)(F)F)cc3)cc2)no1)c1ccccc1
8,≥ 128,CCOP(=O)(OCC)c1c[nH]nc1-c1nc(-c2ccc(Oc3ccc(C(F)(F)F)cc3)cc2)no1
9,8,Oc1c(F)cc(-c2nc(-c3ccc(Oc4ccc(F)cc4)cc3)no2)cc1F
10,≥ 128,CC(C)(C)OC(=O)N1CCC(Nc2c[nH]nc2-c2nc(-c3ccc(Oc4ccc(C(F)(F)F)cc4)cc3)no2)CC1
11,≥ 128,NCCCCc1nc(-c2ccc(Oc3ccccc3)cc2)no1
12,≥ 128,COc1ccc(-c2nc(-c3ccc(Oc4ccc(C(F)(F)F)cc4)cc3)no2)cc1OC
13,≥ 128,Nc1ccc(-c2nc(-c3ccc(Oc4ccc(F)cc4)cc3)no2)cc1
14,2,Oc1ccc(-c2nc(-c3ccc(Oc4ccc(C(F)(F)F)cc4)cc3)no2)cc1O
15,≥ 128,Cl.NC(Cc1ccccc1)c1nc(-c2ccc(Oc3ccccc3)cc2)no1 (stereo unspecified)
16,8,O=[N+]([O-])c1cc(-c2nc(-c3ccc(Oc4ccc(F)cc4)cc3)no2)cnc1O
